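48-hour exposure; five concentrations; linearly interpolated endpoints. Definition used: TGI = concentration required for complete inhibition of growth.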
Assays:
Experiment in all cases: NCI-60 cell line screen, 48 h
NCI-H522 lung = system: NCI-H522 lung
HT29 colon = system: HT29 colon
EKVX NSCLC = system: EKVX NSCLC
A549 NSCLC = system: A549 NSCLC
MDA-N = system: MDA-N
MDA-MB-435 = system: MDA-MB-435
SK-MEL-5 melanoma = system: SK-MEL-5 melanoma
SK-MEL-2 melanoma = system: SK-MEL-2 melanoma
HL-60(TB) leukemia = system: HL-60(TB) leukemia
MDA-MB-231 breast = system: MDA-MB-231 breast
SF-268 CNS = system: SF-268 CNS
SF-295 CNS = system: SF-295 CNS
SK-MEL-28 melanoma = system: SK-MEL-28 melanoma
HCT-116 colon = system: HCT-116 colon
K-562 leukemia = system: K-562 leukemia
U251 CNS = system: U251 CNS
HS 578T breast = system: HS 578T breast
MCF7 breast = system: MCF7 breast
LOX IMVI melanoma = system: LOX IMVI melanoma
MOLT-4 leukemia = system: MOLT-4 leukemia
COLO 205 colon = system: COLO 205 colon
DU-145 prostate = system: DU-145 prostate
SF-539 CNS = system: SF-539 CNS
NCI-H460 lung = system: NCI-H460 lung
SNB-75 CNS = system: SNB-75 CNS
A498 renal = system: A498 renal
UACC-62 melanoma = system: UACC-62 melanoma
PC-3 prostate = system: PC-3 prostate
NCI/ADR-RES ovarian = system: NCI/ADR-RES ovarian
NCI-H23 lung = system: NCI-H23 lung
SW-620 colon = system: SW-620 colon
MALME-3M melanoma = system: MALME-3M melanoma
KM12 colon = system: KM12 colon
TK-10 renal = system: TK-10 renal
SK-OV-3 ovarian = system: SK-OV-3 ovarian
IGROV1 ovarian = system: IGROV1 ovarian
M14 melanoma = system: M14 melanoma
UO-31 renal = system: UO-31 renal
CCRF-CEM leukemia = system: CCRF-CEM leukemia
OVCAR-8 ovarian = system: OVCAR-8 ovarian
HCT-15 colon = system: HCT-15 colon
BT-549 breast = system: BT-549 breast
RXF 393 renal = system: RXF 393 renal
OVCAR-5 ovarian = system: OVCAR-5 ovarian
SNB-19 CNS = system: SNB-19 CNS
ACHN renal = system: ACHN renal
OVCAR-4 ovarian = system: OVCAR-4 ovarian
786-0 renal = system: 786-0 renal
T-47D breast = system: T-47D breast
NCI-H226 lung = system: NCI-H226 lung
SN12C renal = system: SN12C renal
HCC-2998 colon = system: HCC-2998 colon
HOP-62 NSCLC = system: HOP-62 NSCLC
OVCAR-3 ovarian = system: OVCAR-3 ovarian
RPMI-8226 leukemia = system: RPMI-8226 leukemia
UACC-257 melanoma = system: UACC-257 melanoma
HOP-92 NSCLC = system: HOP-92 NSCLC
CAKI-1 renal = system: CAKI-1 renal
SR leukemia = system: SR leukemia

Work on `CN(C)c1cc[n+](-c2nc(/N=C(\[O-])C(F)(F)F)nc3c2ncn3C2CC(O)C(CO)O2)cc1` (stereo not drawn) yielded a TGI (NCI-H522 lung) greater than 100 µM, a TGI (HT29 colon) greater than 100 µM and a TGI (EKVX NSCLC) greater than 100 µM. It also gave a TGI (A549 NSCLC) greater than 100 µM, a TGI (MDA-N) greater than 100 µM and a TGI (MDA-MB-435) greater than 100 µM. For the same compound, the TGI (SK-MEL-5 melanoma) was greater than 100 µM, the TGI (SK-MEL-2 melanoma) was greater than 100 µM and the TGI (HL-60(TB) leukemia) was greater than 100 µM. The TGI (MDA-MB-231 breast) was greater than 100 µM, the TGI (SF-268 CNS) was greater than 100 µM and the TGI (SF-295 CNS) was greater than 100 µM. The TGI (SK-MEL-28 melanoma) was greater than 100 µM, the TGI (HCT-116 colon) was greater than 100 µM and the TGI (K-562 leukemia) was greater than 100 µM. For the same compound, the TGI (U251 CNS) was greater than 100 µM, the TGI (HS 578T breast) was greater than 100 µM and the TGI (MCF7 breast) was greater than 100 µM. The TGI (LOX IMVI melanoma) was greater than 100 µM, the TGI (MOLT-4 leukemia) was greater than 100 µM and the TGI (COLO 205 colon) was greater than 100 µM. The TGI (DU-145 prostate) was greater than 100 µM, the TGI (SF-539 CNS) was greater than 100 µM and the TGI (NCI-H460 lung) was greater than 100 µM. The TGI (SNB-75 CNS) was greater than 100 µM, the TGI (A498 renal) was greater than 100 µM and the TGI (UACC-62 melanoma) was greater than 100 µM. For the same compound, the TGI (PC-3 prostate) was greater than 100 µM, the TGI (NCI/ADR-RES ovarian) was greater than 100 µM and the TGI (NCI-H23 lung) was greater than 100 µM. It also gave a TGI (SW-620 colon) greater than 100 µM, a TGI (MALME-3M melanoma) greater than 100 µM and a TGI (KM12 colon) greater than 100 µM. It also gave a TGI (TK-10 renal) greater than 100 µM, a TGI (SK-OV-3 ovarian) greater than 100 µM and a TGI (IGROV1 ovarian) greater than 100 µM. The TGI (M14 melanoma) was greater than 100 µM, the TGI (UO-31 renal) was greater than 100 µM and the TGI (CCRF-CEM leukemia) was greater than 100 µM. For the same compound, the TGI (OVCAR-8 ovarian) was greater than 100 µM, the TGI (HCT-15 colon) was greater than 100 µM and the TGI (BT-549 breast) was greater than 100 µM. The TGI (RXF 393 renal) was greater than 100 µM, the TGI (OVCAR-5 ovarian) was greater than 100 µM and the TGI (SNB-19 CNS) was greater than 100 µM. For the same compound, the TGI (ACHN renal) was greater than 100 µM, the TGI (OVCAR-4 ovarian) was greater than 100 µM and the TGI (786-0 renal) was greater than 100 µM. For the same compound, the TGI (T-47D breast) was greater than 100 µM, the TGI (NCI-H226 lung) was greater than 100 µM and the TGI (SN12C renal) was greater than 100 µM. The TGI (HCC-2998 colon) was greater than 100 µM, the TGI (HOP-62 NSCLC) was greater than 100 µM and the TGI (OVCAR-3 ovarian) was greater than 100 µM. The TGI (RPMI-8226 leukemia) was greater than 100 µM.

`CCN(CC)c1ccc2cc(C(=O)Nc3ccccn3)c(=N)oc2c1` showed a TGI (HT29 colon) greater than 100 µM, a TGI (EKVX NSCLC) greater than 100 µM and a TGI (A549 NSCLC) greater than 100 µM. For the same compound, the TGI (MDA-N) was greater than 100 µM, the TGI (UACC-257 melanoma) was greater than 100 µM and the TGI (MDA-MB-435) was greater than 100 µM. The TGI (SK-MEL-5 melanoma) was greater than 100 µM, the TGI (SK-MEL-2 melanoma) was 95.7 µM and the TGI (HL-60(TB) leukemia) was greater than 100 µM. For the same compound, the TGI (MDA-MB-231 breast) was greater than 100 µM, the TGI (SF-268 CNS) was greater than 100 µM and the TGI (SK-MEL-28 melanoma) was greater than 100 µM. It also gave a TGI (HCT-116 colon) greater than 100 µM, a TGI (K-562 leukemia) greater than 100 µM and a TGI (U251 CNS) greater than 100 µM. The TGI (HS 578T breast) was 88.5 µM, the TGI (LOX IMVI melanoma) was greater than 100 µM and the TGI (MOLT-4 leukemia) was greater than 100 µM. The TGI (COLO 205 colon) was greater than 100 µM, the TGI (HOP-92 NSCLC) was greater than 100 µM and the TGI (DU-145 prostate) was greater than 100 µM. The TGI (SF-539 CNS) was greater than 100 µM, the TGI (NCI-H460 lung) was greater than 100 µM and the TGI (CAKI-1 renal) was greater than 100 µM. It also gave a TGI (SNB-75 CNS) greater than 100 µM, a TGI (A498 renal) greater than 100 µM and a TGI (UACC-62 melanoma) greater than 100 µM. It also gave a TGI (NCI/ADR-RES ovarian) greater than 100 µM, a TGI (NCI-H23 lung) greater than 100 µM and a TGI (SW-620 colon) greater than 100 µM. The TGI (MALME-3M melanoma) was greater than 100 µM, the TGI (KM12 colon) was greater than 100 µM and the TGI (SK-OV-3 ovarian) was greater than 100 µM. For the same compound, the TGI (SR leukemia) was greater than 100 µM, the TGI (IGROV1 ovarian) was greater than 100 µM and the TGI (M14 melanoma) was greater than 100 µM. For the same compound, the TGI (CCRF-CEM leukemia) was greater than 100 µM, the TGI (OVCAR-8 ovarian) was greater than 100 µM and the TGI (HCT-15 colon) was greater than 100 µM. It also gave a TGI (BT-549 breast) greater than 100 µM, a TGI (RXF 393 renal) greater than 100 µM and a TGI (OVCAR-5 ovarian) greater than 100 µM. It also gave a TGI (SNB-19 CNS) of 76.2 µM, a TGI (ACHN renal) greater than 100 µM and a TGI (OVCAR-4 ovarian) greater than 100 µM. It also gave a TGI (786-0 renal) greater than 100 µM, a TGI (T-47D breast) greater than 100 µM and a TGI (NCI-H226 lung) greater than 100 µM. It also gave a TGI (SN12C renal) greater than 100 µM, a TGI (HCC-2998 colon) greater than 100 µM and a TGI (HOP-62 NSCLC) of 52.1 µM. For the same compound, the TGI (OVCAR-3 ovarian) was greater than 100 µM and the TGI (RPMI-8226 leukemia) was greater than 100 µM.
